Converted amounts (≈) assume the structure as drawn. Like-named read-outs stand apart in the source and are kept apart here.
Key:
[1] = Metabolic stability in mouse hepatocytes; type: in vitro ADME; details: hepatocytes (suspension), pH 7.4, 90 min incubation, read-out: Mouse hepatocyte % remaining at 90 min
Method: (§1) 100 μM compound stock solution was prepared from 5 μL of 4 mM stock in DMSO + 195 μL MeCN. Working solution (2 μM compound) was prepared using 10 μL of 100 μM stock + 490 μL buffer pH 7.4 (KHB supplemented with CaCl2, NaHCO3, HEPES, fructose, glycine; pH 7.4).
(§2) Working solution (25 μL, 2 μM) was added in duplicate to wells in a 0.5 mL per well, 96 well plate which was preincubated to reach 37°C. Hepatocyte suspension (25 μL) was added to each plate, and the plate incubated (37°C, 95% relative humidity with 5% CO2 supply) under gentle mixing (Thermomixer @300 rpm). After designated time periods, ice-cold MeCN (250 μL) was added with a suitable standard. For T = 0 min, ice-cold MeCN (250 μL) with suitable standard was added to the working solution (2 μM) and hepatocyte suspension (25 μL) added. The plates for each time point were shaken, sonicated for 5 mins and kept at 4°C until the final plate was processed. The plates were centrifuged at 4,000 rpm for 20 min, supernatant (110 μL) was mixed with water (110 μL) and the samples analysed using LC-MS/MS.

[2] = Metabolic stability in human hepatocytes; type: in vitro ADME; details: hepatocytes (suspension), pH 7.4, 90 min incubation, read-out: Human hepatocyte % remaining at 90 min
Method: as §1, §2

[3] = Mouse pharmacokinetics; type: in vivo;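 also: three mice per experiment, dosed in 10% DMSO with 50 mM Na2HPO4 buffer plus Tween-80, plasma levels quantified by LC-MS against a calibration line prepared in blank matrix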
Method: Routine pharmacokinetics was carried out as previously described [24] with the following modifications: Swiss albino male mice of average weight 30 g with three animals per experiment. The final vehicle was 10% DMSO, 90% 50 mM Na2HPO4 with 0.5% Tween-80. Compounds were dosed singly (at a variety of doses as noted in the text) or more commonly in mixtures of 5 at 1 mg/kg per compound iv into the lateral tail vein or 2.5 mg/kg per compound by oral gavage. ~30 μl blood samples were taken by venepuncture, into heparinized capillary tubes and subsequently transferred into 0.5 ml micro-centrifuge tubes. Collection time points were 5 min (iv only), 15 min, 30 min, 1 h, 2 h, 4 h, 8 h & 24 h. All blood samples were processed for plasma by centrifugation at 4,000 rpm for 10 min at 4°C within half an hour of collection. Plasma samples were stored at -20°C until bioanalysis.
Prior to LC-MS analysis, all samples were extracted using protein precipitation using acetonitrile as the extraction solvent. For each batch of samples, a calibration line spanning an appropriate concentration range was created by spiking the compound of interest into blank matrix. The calibration line included 10 evenly spaced points. […] Where necessary, additional dilution QCs were included to validate the dilution process. Within each batch at least 3 study samples were assayed pre and post dilution to assess whether there was any impact from the presence of dosing vehicle in the samples. A linear regression was performed on peak area response ratios (analyte:IS) and the results used to back-calculate analyte concentrations. A batch of samples were considered acceptable if 75% of the calibration samples and 66% of the standard QC samples were within 20% of nominal. The linear range of the assay was defined by the calibration line ±20% i.e. the maximum reportable concentration was 120% of the highest concentration calibration sample that passed acceptance criteria. A metric plot of the IS response was reviewed to ensure the integrity of the study sample data.

[4] = In vivo efficacy, mouse model of juvenile (21-day old) S. mansoni infection; details: female, CD1, plasma; mouse, Juvenile infection, oral 6.25x2 mg/kg (12 h apart), formulation corn oil; read-out: Plasma conc @24 h (efficacy experiment)
Method: (§3) Prior to in vivo efficacy experiments, a single animal was given a dose of drug (using the same formulation) that was twice as large as that planned for use in the efficacy experiments and was observed periodically for adverse clinical signs for 24h by trained veterinarians. Adverse clinical signs checked include postural defect, vocalization, oculo-nasal discharge, hypersalivation, change in activity, abnormal gait, respiration and pulse, piloerection, loss of pupillary reflex, eyelid reflex, chromodacryorrhea, reaction to handling, tremor, convulsions, prostration, diarrhoea, cachexia, emaciation. […] In vivo efficacy was assessed in female CD1 mice using methods based on those previously described. Mice were infected subcutaneously with 150 cercariae. Test compounds were suspended in 7% Tween-80 / 3% Ethanol / double distilled water and drug dispersal was facilitated by vortexing and using a sonicating water bath (Formulation “Aqueous”). Alternatively, drugs were first dissolved in DMSO, then diluted with corn oil to give a 1:19 DMSO:corn oil solution/suspension of test compound (Formulation “Corn oil”). Dosing was by oral gavage. Mice in the negative control groups were given the drug suspension vehicle only. Positive controls for treatment of adult, day 42 old, infections were treated with PZQ and those for juvenile, day 21 old, infections with artemether, which unlike PZQ is effective against the juvenile worm infections in mice. During and following treatment, mice were closely observed for any ill effects by staff experienced in animal handling. This involved individuals who were blinded to the treatment groups. Effects they were trained to look for included hunching, immobility, piloerection, subdued behaviour, diarrhoea and loss of body condition. None were seen. Worms were recovered by portal perfusion with citrate saline 8–14 days post treatment and counted. Differences between groups relative to the non-drug treated controls were assessed for statistical significance by Student’s unpaired t-test using GraphPad Prism Software. P values are presented as follows:- ns–P > 0.05 (not significant), * P ≤ 0.05, ** P ≤ 0.01, *** P ≤ 0.001, **** P ≤ 0.0001.
(§4) For pharmacokinetic analysis during the in vivo efficacy experiments individual animals were only sampled once. Samples were taken from one animal in each experimental group at each of 1, 4, 8 h and samples from two animals in each group were taken at 24 h.

[5] = test system: S. mansoni juvenile worms; assay: as above; details: mouse
Method: as §3, §4

[6] = Plasma protein binding in human plasma at 10 uM, equilibrium dialysis; type: in vitro ADME
Method: Each experiment was performed in duplicate for the compound being tested. A working solution of compound was prepared from 10 μL of 10 mM solution in DMSO + 190 μL 40:60 MeCN:Water. A Total solution was prepared from 12 μL of working solution + 588 μL plasma (compound conc: 10 μM, DMSO: 0.1%, ACN:0.76%). In an equilibrium dialysis chamber, Total solution (200 μL) was added to the plasma chamber and PBS pH 7.4 (350 μL) was added to the buffer chamber. The chamber was then incubated at 37°C for 6 h with constant shaking at 400 rpm (Thermomixer comfort, Eppendorf). Aliquots were removed from both plasma and buffer chambers and the following test samples prepared: Blank: blank Plasma (20 μL) + blank buffer (60 μL), Buffer: blank plasma (20 μL) + test buffer (60 μL), Plasma: test plasma (20 μL) + blank buffer (60 μL), Total: total sample (20 μL) + blank buffer (60 μL). Ice-cold acetonitrile (160 μL), containing a suitable standard was added to all samples, they were shaken vigorously and centrifuged at 4,000 rpm for 20 min at 15°C. Supernatant (110 μL) from each sample was diluted with water (110 μL) and the sample analysed by LC-MS/MS.
% Free = 100 × (AREA in buffer × dilution factor)/(AREA in Plasma × dilution factor)
% Recovery = 100 ×[(Avg AREA in buffer × dilution factor) + (Avg AREA in Plasma × dilution factor)] / (Avg AREA in Total × dilution factor)

[7] = Kinetic solubility; type: physicochemical
Text: Table 4 in vitro, physicochemical and in vivo properties of compounds pictured in Fig 10. | column: Measured physicochemical properties / Kinetic solubility, pH 7.4 (uM); Measured physicochemical properties / Kinetic solubility, FaSSIF (uM); Measured physicochemical properties / Kinetic solubility, FeSSIF (uM)

Compound `CC(C)c1cc(-c2cn3c(-c4ccc5[nH]ncc5c4F)c(C4CC4)nc3cn2)ccc1F` [LSHTM-3686] has a remaining at 1.5 h, 1 µM [1] of 75%, a remaining at 1.5 h, 1 µM [2] of 75% and a Clobs ([3]; 0.5 mg/kg iv, in a mixture of 5 compounds) of 15.7 mL/min/kg. The half life ([3]; 0.5 mg/kg iv, in a mixture of 5 compounds, sampled over 24 h, 0.5 mg/kg) was 6.2 h, the AUC(0-inf) ([3]; male, Swiss albino, plasma, 0.5 mg/kg iv, in a mixture of 5 compounds) was 500 ng·h/mL and the Vd ([3]; male, Swiss albino, plasma, 0.5 mg/kg iv, in a mixture of 5 compounds, read-out: Vss) was 3.9 L/kg. For the same compound, the bioavailability ([3]; male, Swiss albino, plasma, 2.5 mg/kg oral, mixture of 5 compounds, calculated values > 100% shown as 100) was 100%, the half-life ([3]; male, Swiss albino, plasma, iv, 0.5 mg/kg, 0.5 mg/kg iv, in a mixture of 5 compounds, sampled over 24 h) was 6 h and the concentration at 24 h [4] was 37.2 ng/mL. The Worms remaining ([5]; Juvenile infection, oral 6.25x2 mg/kg (12 h apart), formulation corn oil) was 25%, the worm burden reduction ([5]; juvenile infection, 6.25 mg/kg given twice 12 h apart) was 75% and the “Human plasma protein %binding” value [6] was 99.998%. It also gave a recovery at 6 h, 10 µM ([6]; human, human plasma, pH 7.4) of 62.7%, a solubility kinetic at 24 h ([7]; FaSSIF, pH 6.5, read-out: Kinetic solubility, FaSSIF) of 33.9 µM (≈ 14.6 µg/mL) and a solubility kinetic at 24 h ([7]; FeSSIF, pH 5, read-out: Kinetic solubility, FeSSIF) of 43.8 µM (≈ 18.8 µg/mL). The solubility kinetic at 24 h ([7]; pH 7.4, read-out: Kinetic solubility, pH 7.4) was 0.885 µM (≈ 0.38 µg/mL).

Reference: publication PMC8321398, “The discovery of a novel series of compounds with single-dose efficacy against juvenile and adult Schistosoma species” (PLoS Neglected Tropical Diseases, 2021)
